From patent US7531520B2, “Drug and food or drink for improving pancreatic functions” (Morinaga Milk Industry Co., Ltd., priority 2005, dated 2009)
Like-named read-outs stand apart in the source and are kept apart here.

Experiments:
db/db mice [1] = assay: Hyperglycemia improving effect in type-II diabetes model mice (Reference Example 1); assay type: in vivo; conditions: male db/db mice, oral 1 mL of 15 μg/mL once a day
Experimental: The final DMSO concentration was adjusted to 0.2%. […] Fasting blood glucose levels and random blood glucose levels were measured over time using Antisense II (Bayer-Sankyo Co., Ltd.). The fasting blood glucose levels were measured after 15 hours of fasting.
Changes over time in random blood glucose levels and fasting blood glucose levels during the test sample administration period are shown in FIGS. 3 and 4.

db/db mice [2] = test system: db/db mice
Experimental: This test was performed in order to evaluate the pancreatic endocrine gland cell function (insulin production ability) protecting action of 3-O-β-D-glucopyranosyl-4-methyl-ergost-7-en-3-ol by using db/db mice known as a model animal of pancreatic hypofunction or pancreatic tissue dysfunction.
In this test, 6-week old male db/db mice (purchased from Clea Japan, Inc.) were used. These mice were divided into groups, each consisting of 7 animals. Each test sample was dissolved in DMSO, and the concentration was adjusted to 0.1 or 1 μg/mL with physiological saline. The final DMSO concentration was adjusted to 0.2%. The model mice were orally administered with 1 mL of the test sample once a day everyday for 42 days with a sonde. The serum insulin level was measured on the 43rd day of the continuous administration by using Lbis insulin mouse ELISA kit (Shibayagi Co., Ltd).

db/db mice [3] = assay: Pancreatic tissue protecting action, Langerhans islets in pancreatic sections (Test Example 2); assay type: in vivo
Experimental: The final DMSO concentration was adjusted to 0.2%. […] On the 43rd day of the continuous administration, the pancreas was extracted, divided into three portions of upstream, midstream and downstream from the duodenum side, and fixed with a formalin solution, and then paraffin blocks were prepared in a conventional manner. Section slides were prepared from the paraffin blocks, and subjected to hematoxylin-eosin staining. The numbers of Langerhans islets existing on the sections of the 3 position of the pancreas, and area of Langerhans islet having the maximum area on each section were measured by using an ocular micrometer on a microscope (“ECLIPSE E600”, NIKON CORP.).

[4] = oral 1 μg once a day for 42 days, pancreatic sections

CC1C(O[C@@H]2O[C@H](CO)[C@@H](O)[C@H](O)[C@H]2O)CC[C@@]2(C)C1CC=C1[C@@H]3CC[C@H]([C@H](C)CC[C@H](C)C(C)C)[C@@]3(C)CC[C@@H]12 (stereo partly drawn) [Test sample, 3-O-β-D-glucopyranosyl-4-methyl-ergost-7-en-3-ol]
Changes over time in random blood glucose levels (db/db mice [1]; FIG. 3, versus negative sample): effect of suppressing the increases in blood glucose levels was clearly observed | Changes over time in fasting blood glucose levels (db/db mice [1]; after 15 hours of fasting, FIG. 4, versus negative sample): effect of suppressing the increases in blood glucose levels was clearly observed | Effect on serum insulin level (pancreatic function protecting effect) (db/db mice [2]; 0.1 μg/animal, 43rd day): any significant effect was not observed | Serum insulin level relative to that observed in the negative test (db/db mice [2]; 1 μg/animal, 43rd day): 216% | Serum insulin levels on 43rd day of administration (db/db mice [2]; oral 0.1 μg/animal once a day for 42 days): 2.24 ± 0.66 ng/mL | Serum insulin levels on 43rd day of administration (db/db mice [2]; oral 1 μg/animal once a day for 42 days): 4.29 ± 0.71 ng/mL | Maximum areas of Langerhans islets relative to that observed in the negative test (db/db mice [3]; 1 μg, 43rd day): 3.6 times | Number of Langerhans islets relative to negative sample-administered mice (db/db mice [3]; 1 μg, 43rd day): 188% | Maximum area of Langerhans islets on 43rd day of administration (db/db mice [3]; [4]): 160.0 ± 116.7 × 10^3 (μm^2) | The numbers of Langerhans islets in sections on 43rd day of administration (db/db mice [3]; [4]): 75.7 ± 24.7 piece
